Data reported in patent US20260365692A1, “COMPOSITIONS COMPRISING PROTEINS DISSOLVED IN FLUORINATED SOLVENTS, AND METHODS OF MAKING AND USING THE SAME” (priority 2022, published 2026).

Assays:
proteinase K = assay: β-Gal activity after proteinase K exposure; assay type: physicochemical; conditions: 24 hours
Text: FIGS. 54A-54C depict the relative activity of the β-Gal protein dispersed in PBS or PFOc solvents without and with contamination by (FIG. 54A) proteinase K, (FIG. 54B) bleach or (FIG. 54C) hydrochloric acid. Data shown as average±s.d. of n=3 technical replicates. Statistical significance between conditions is indicated by a line using unpaired Student's t-test with n.s.=not significant, * p<0.05, ** p<0.01, and *** p<0.001.
An equal volumetric amount of β-Gal and proteinase K stocks were mixed and incubated together for 24 hours. The remaining active β-Gal was evaluated by adding ONPG substrate diluted in PBS at 4 mg/mL directly to the samples. This action eluted β-Gal from PFOc solvent and immediately starting ONPG conversion without further β-Gal disruption from residue proteinase K that was also eluted into aqueous buffer. The enzymatic activity was calculated from measuring absorbance (420 nm) after 15-minute conversion. […] A likely explanation for this is that the proteinase K protein is also coated by the PD-7 additive after addition to the PFOc solvent, leading to its segregation from the co-dispersed β-Gal protein.

[1] = Acute toxicity of β-Gal formulations in mice (Example 4); assay type: in vivo, C57BL/6J mice; conditions: 24 h
Method: FIG. 56 depicts serologic toxicology results from C57BL/6J mice 24 hours after administration of saline (control), β-GalSaline or β-GalExt. PFOc. Data shown as box and whisker plot±s.d. of n=5 technical replicates. Statistical significance determined using Student's t-test and represented as * p<0.05; all other comparisons were found not to be significant (p>0.05).
Finally, to assess the potential for acute toxicity of the fluorous dispersant, serologic chemistry analysis and histology was performed 24 hours after treating mice with β-Gal delivered from saline or PFOc extractions. […] Reduction of this marker can indicate a transient impairment of kidney and/or liver function.

BSA [2] = target: T1, BSA (Bos taurus, UniProt P02769); assay: Surface plasmon resonance, BSA; assay type: binding, bovine; conditions: after reference correction
T1 sequence (P02769 25-607): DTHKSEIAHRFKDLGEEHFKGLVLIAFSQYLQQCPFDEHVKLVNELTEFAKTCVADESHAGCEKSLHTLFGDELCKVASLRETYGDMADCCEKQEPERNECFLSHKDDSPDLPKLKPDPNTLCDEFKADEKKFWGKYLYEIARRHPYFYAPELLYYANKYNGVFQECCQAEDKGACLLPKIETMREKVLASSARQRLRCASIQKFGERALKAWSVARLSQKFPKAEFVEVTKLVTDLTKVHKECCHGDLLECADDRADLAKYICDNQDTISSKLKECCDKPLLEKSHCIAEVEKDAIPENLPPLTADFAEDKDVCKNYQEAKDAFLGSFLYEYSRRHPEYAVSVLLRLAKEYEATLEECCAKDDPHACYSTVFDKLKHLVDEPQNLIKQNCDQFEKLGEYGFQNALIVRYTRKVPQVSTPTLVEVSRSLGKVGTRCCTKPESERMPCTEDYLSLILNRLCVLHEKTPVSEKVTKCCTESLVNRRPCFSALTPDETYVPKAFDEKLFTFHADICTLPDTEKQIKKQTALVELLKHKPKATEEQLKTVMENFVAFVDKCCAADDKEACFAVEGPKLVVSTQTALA
Text: (§1) FIGS. 14A-14L depict circular dichroism spectra of Hb (FIG. 14A), GFP (FIG. 14B), BSA (FIG. 14C), β-Gal (FIG. 14D), rabbit serum IgG (FIG. 14E), transferrin (FIG. 14F), and urease (FIG. 14G) in the absence (black line) or presence (dashed lines) of PFNA. Increasing dash sequence indicated higher concentration of PFNA. FIG. 14H: Change in molar ellipticity at 216 nm (Δθ216) of PFNA-treated proteins, relative to native controls, as a function of increasing ligand concentration. FIG. 14I: Percentage change in secondary structural motifs of Hb, β-Gal and IgG between the native protein and 1 mM PFNA treated samples. β-sheet structures were further differentiated into parallel and antiparallel conformations. Hb, β-Gal and IgG were prioritized for analysis based on their significant spectral shift in the presence of 1 mM PFNA. FIGS. 14J-14L: Sensograms for BSA (FIG. 14J), β-gal (FIG. 14K), and IgG (FIG. 14L) showing relative response (R.U.) at 10, 25, 50, 75, and 100 μM.
To test this assertion, PFNA binding to three exemplary proteins, BSA, β-Gal and IgG, was studied via isothermal titration calorimetry (ITC) and surface plasmon resonance (SPR) techniques. […] SPR analysis yielded similar results, with sensorgrams (FIGS. 14J-14L) that diverged from a simple 1:1 ligand-protein model. […]

tested proteins = assay: Induction of non-native protein secondary structure
Method: (§2) To explore PFNA-mediated changes in protein structure, dose-response circular dichroism (CD) studies were performed (FIG. 14A-14G). […] Remarkably, these structural changes endured even at sub-stoichiometric PFNA:protein ratios (see 0.001 mM PFNA in […]; protein concentration was constant at 0.01 mM).
Prior studies have shown ≥15 vol % of TFE in water, which represents a 2M total concentration, was required to induce protein structural transitions. […] In addition, PFNA appeared to favor modulation of […] structures over α-helices, which can be interpreted by monitoring changes in both ellipticity at 216 nm (FIG. 14H) and percentage of secondary structural motifs (FIG. 14I) relative to the native protein. […] The dose-dependent reduction in the signal after analyte injection may have been due to conformational change of the target protein, as has been observed in prior studies.

[3] = test system: green fluorescent protein (GFP); assay: Circular dichroism with PFNA, GFP; conditions: increasing PFNA concentration
Text: as §1, §2

BSA [4] = target: T1, BSA; assay: 1H and 19F NMR of dispersant:BSA complex; assay type: binding, bovine
Method: FIG. 43 depicts a superimposed ^1H NMR spectra of PD-7 (60 mM) and PD-7:BSA (1000:1 molar ratio) complex.
FIG. 44 depicts a superimposed ^1H NMR spectra of PD-2 (60 mM) and PD-2:BSA (1000:1 molar ratio) complex.
FIG. 45 depicts the change in ^1H (—COOH) and ^19F (—CF3) NMR chemical shift (Δδ) for PD-2 (grey) and PD-7 (black) following coordination with the BSA protein.
1H NMR and 19F NMR spectroscopy were employed to examine the biophysical interactions between BSA and PD-7 in the fluorous solvent. 60 mM PFNA solution in PFOc was aliquoted into lyophilized BSA stocks to achieve 1000:1 PFNA/BSA molar ratio then transferred to thin wall precision tube with Norell Coaxial inserts containing D2O as locking solvent. NMR spectra were collected on a Bruker NEO-400, equipped with a double resonance broadband observe iProbe (capable of automatic tuning and matching) for 1H and 19F nuclei observation. […] This is a 7-fold change in chemical shift relative to PD-7:BSA (FIG. 45).

[5] = β-Gal delivered from PFOc vs saline
[6] = presence of BSA, 1000:1 molar ratio, in PFOc

Compound: β-Gal: β-Galactosidase (β-Gal), dissolved in PBS/saline or dispersed in PFOc
- β-Gal activity in presence of proteinase K (proteinase K; PFOc formulation): no statistically significant change in activity
- β-Gal activity in presence of proteinase K (proteinase K; dissolved in PBS): completely inactivated
- histologic analysis of vital organs ([1]; kidney, liver, lung, spleen): did not identify pathologic signs of necrosis, cellular infiltration, inflammation, or hemorrhage
- albumin/globulin (ALB/GLOB) ratio [1, 5]: statistically significant reduction
- other renal (CREA, BUN, TP) and hepatic (ALT, AST, ALKP) markers [1, 5]: absence of statistically significant changes

Compound: O=C(O)C(F)(F)C(F)(F)C(F)(F)C(F)(F)C(F)(F)C(F)(F)C(F)(F)C(F)(F)F [Compound 7, perfluoronanonic acid]
- SPR response (BSA [2]): negative responses
- concentration sufficient to induce ordered non-native structure (tested proteins; many of the tested proteins): 0.001 mM
- increase in potency in inducing non-native protein secondary structure relative to TFE (tested proteins; relative to trifluoroethanol): 10^6
- CD structural change, GFP (θ216 nm) [3]: slight enhancement of β-sheet structure
- change in chemical shift relative to PD-7:BSA (BSA [4]; 1H —COOH, PD-2 vs PD-7): 7 fold
- change in chemical shift of CF3 (Δδ, 19F NMR) (BSA [4]; [6]): 0.006 ppm
- downfield shift of —COOH hydrogen (1H NMR) (BSA [4]; [6]): 0.56 ppm
